Experimental findings from ChEMBL document CHEMBL2417425, “Design and synthesis of positional isomers of 5 and 6-bromo-1-[(phenyl)sulfonyl]-2-[(4-nitrophenoxy)methyl]-1H-benzimidazoles as possible antimicrobial and antitubercular agents” (2013) are described below.

Type in all cases: functional
Test [1] deals with Mycolicibacterium fortuitum. As to the kind of experiment: Antimycobacterial activity against Mycobacterium fortuitum ATCC 19542 assessed as growth inhibition at 0.3125 to 5 ug/mL by resazurin assay.
Test [2] relates to Mycolicibacterium smegmatis. The test is described as follows: Antimycobacterial activity against Mycobacterium smegmatis ATCC 19420 assessed as growth inhibition at 0.3125 to 5 ug/mL by resazurin assay. (In general: Resazurin is reduced to fluorescent resorufin, in cell work by metabolically active cells.)
The test system of test [3] is Mycobacterium tuberculosis. The test is described as follows: Antimycobacterial activity against Mycobacterium tuberculosis H37Rv assessed as growth inhibition at 0.3125 to 5 ug/mL by resazurin assay.
For test [4], the system named is Mycolicibacterium fortuitum. The test is described as follows: Antimycobacterial activity against Mycobacterium fortuitum ATCC 19542 assessed as growth inhibition at 1 to 100 ug/mL by resazurin assay.
The test system of test [5] is Mycolicibacterium smegmatis. As to the kind of experiment: Antimycobacterial activity against Mycobacterium smegmatis ATCC 19420 assessed as growth inhibition at 1 to 100 ug/mL by resazurin assay.
The subject of test [6] is Mycobacterium tuberculosis. The test is described as follows: Antimycobacterial activity against Mycobacterium tuberculosis H37Rv assessed as growth inhibition at 1 to 100 ug/mL by resazurin assay. The conditions noted are these: for MIC: Mycobacterium tuberculosis, H37Rv.
In test [7] the test system is Klebsiella pneumoniae. The test is described as follows: Potency index, ratio of ciprofloxacin MIC to compound MIC for Klebsiella pneumoniae.
The subject of test [8] is Rhizopus. As to the kind of experiment: Antifungal activity against Rhizopus sp. assessed as growth inhibition by serial dilution method.
Test [9] deals with Aspergillus flavus. As to the kind of experiment: Antifungal activity against Aspergillus flavus assessed as growth inhibition by serial dilution method.
Test [10] has as its system Candida albicans. As to the kind of experiment: Antifungal activity against Candida albicans assessed as growth inhibition by serial dilution method.
Test [11] deals with Klebsiella pneumoniae. The test is described as follows: Antibacterial activity against Klebsiella pneumoniae assessed as growth inhibition by serial dilution method.
Test [12] relates to Escherichia coli. The test is described as follows: Antibacterial activity against Escherichia coli assessed as growth inhibition by serial dilution method.
Test [13] relates to Staphylococcus aureus. As to the kind of experiment: Antibacterial activity against Staphylococcus aureus assessed as growth inhibition by serial dilution method.
Test [14] has as its system Staphylococcus aureus. As to the kind of experiment: Potency index, ratio of ciprofloxacin MIC to compound MIC for Staphylococcus aureus.

Values after ≈ are worked out from the molar mass of the structure shown.

For `O=[N+]([O-])c1ccc(OCc2nc3cc(Br)ccc3n2S(=O)(=O)c2ccccc2Cl)cc1`, the minimal inhibitory concentration (MIC) – broadly, the lowest concentration that inhibits growth of the organism – came out at 10 µg/mL (≈ 19.1 µM) in test [1]; 1.25 µg/mL (≈ 2.39 µM) in test [2]; 0.625 µg/mL (≈ 1.2 µM) in test [3]; 10 µg/mL (≈ 19.1 µM) in test [4]; 1 µg/mL (≈ 1.91 µM) in [5]; 1 µg/mL (≈ 1.91 µM) in test [6]. The MIC stood at 16 µg/mL (≈ 30.6 µM) in test [8]; 32 µg/mL (≈ 61.2 µM) in test [9]; 8 µg/mL (≈ 15.3 µM) in test [10]; 8 µg/mL (≈ 15.3 µM) in test [11]; 4 µg/mL (≈ 7.65 µM) in [12]; 16 µg/mL (≈ 30.6 µM) in [13]. Also, in test [6], the “growth inhibition (GI)” value is given as 90%. In test [7], the PI came out at 1.
As to `COc1ccc(S(=O)(=O)n2c(COc3ccc([N+](=O)[O-])cc3)nc3cc(Br)ccc32)c(OC)c1`, the MIC in test [1] came to 1.25 µg/mL (≈ 2.28 µM); in test [2], 1.25 µg/mL (≈ 2.28 µM); in test [3], 1.25 µg/mL (≈ 2.28 µM); in test [4], 10 µg/mL (≈ 18.2 µM); in test [5], 1 µg/mL (≈ 1.82 µM); in test [6] it was 1 µg/mL (≈ 1.82 µM). Moreover, the MIC amounted to 256 µg/mL (≈ 467 µM) in [8]; 128 µg/mL (≈ 233 µM) in test [9]; 128 µg/mL (≈ 233 µM) in test [10]; 128 µg/mL (≈ 233 µM) in [11]; 256 µg/mL (≈ 467 µM) in test [12]; 64 µg/mL (≈ 117 µM) in test [13]. Further, the “growth inhibition (GI)” value in test [6] was found to be 90%.
Take `O=[N+]([O-])c1ccc(OCc2nc3ccc(Br)cc3n2S(=O)(=O)c2ccccc2[N+](=O)[O-])cc1`: the minimal inhibitory concentration (MIC) came to 1.25 µg/mL (≈ 2.34 µM) in [1]; 1.25 µg/mL (≈ 2.34 µM) in test [2]; 1.25 µg/mL (≈ 2.34 µM) in [3]; 10 µg/mL (≈ 18.8 µM) in test [4]; 1 µg/mL (≈ 1.88 µM) in test [5]; 1 µg/mL (≈ 1.88 µM) in test [6]. Further, the MIC in [8] was 256 µg/mL (≈ 480 µM); in [9], above 256 µg/mL; in [10] it was above 256 µg/mL; in test [11], 256 µg/mL (≈ 480 µM); in test [12], 128 µg/mL (≈ 240 µM); in test [13], above 256 µg/mL. The “growth inhibition (GI)” value in test [6] turned out to be 90%.
Take `COc1ccc(OC)c(S(=O)(=O)n2c(COc3ccc([N+](=O)[O-])cc3)nc3cc(Br)ccc32)c1`: the MIC came to 1.25 µg/mL (≈ 2.28 µM) in test [1]; 1.25 µg/mL (≈ 2.28 µM) in test [2]; 1.25 µg/mL (≈ 2.28 µM) in test [3]; 10 µg/mL (≈ 18.2 µM) in test [4]; 1 µg/mL (≈ 1.82 µM) in [5]; 1 µg/mL (≈ 1.82 µM) in test [6]. Further, the MIC came to 256 µg/mL (≈ 467 µM) in test [8]; 64 µg/mL (≈ 117 µM) in [9]; 128 µg/mL (≈ 233 µM) in [10]; 256 µg/mL (≈ 467 µM) in test [11]; 128 µg/mL (≈ 233 µM) in test [12]; 128 µg/mL (≈ 233 µM) in test [13]. Also, the “growth inhibition (GI)” value in [6] is on record as 90%.
For the compound `O=[N+]([O-])c1ccc(OCc2nc3cc(Br)ccc3n2S(=O)(=O)c2cc(F)ccc2F)cc1`, the MIC in test [1] is 10 µg/mL (≈ 19.1 µM); in test [2], 10 µg/mL (≈ 19.1 µM); in test [3] it was 0.625 µg/mL (≈ 1.19 µM); in [4], 10 µg/mL (≈ 19.1 µM); in test [5] it was 10 µg/mL (≈ 19.1 µM); in [6], 1 µg/mL (≈ 1.91 µM). Further, the MIC in test [8] was found to be 16 µg/mL (≈ 30.5 µM); in test [9], 8 µg/mL (≈ 15.3 µM); in [10] it was 16 µg/mL (≈ 30.5 µM); in test [11] it was 4 µg/mL (≈ 7.63 µM); in test [12] it was 32 µg/mL (≈ 61 µM); in test [13] it was 4 µg/mL (≈ 7.63 µM). Further, in [6], the “growth inhibition (GI)” value amounted to 95%. Further, the PI in test [7] stood at 2; in test [14], 1.
In the case of `O=[N+]([O-])c1ccc(OCc2nc3cc(Br)ccc3n2S(=O)(=O)c2cc(Cl)ccc2Cl)cc1`, the MIC in [1] is 10 µg/mL (≈ 17.9 µM); in test [3], 1.25 µg/mL (≈ 2.24 µM); in [4], 10 µg/mL (≈ 17.9 µM); in test [5] it was 10 µg/mL (≈ 17.9 µM); in test [6], above 100 µg/mL; in test [8], 16 µg/mL (≈ 28.7 µM). For the same compound, the MIC stood at 32 µg/mL (≈ 57.4 µM) in test [9]; 64 µg/mL (≈ 115 µM) in [10]; 8 µg/mL (≈ 14.4 µM) in [11]; 4 µg/mL (≈ 7.18 µM) in test [12]; 8 µg/mL (≈ 14.4 µM) in [13]. Moreover, the “growth inhibition (GI)” value in test [6] came to 90%. Further, the PI in test [7] came to 1.
Take `O=[N+]([O-])c1ccc(OCc2nc3cc(Br)ccc3n2S(=O)(=O)c2ccccc2[N+](=O)[O-])cc1`: the MIC in test [1] came to 10 µg/mL (≈ 18.8 µM); in [2] it was 1.25 µg/mL (≈ 2.34 µM); in test [3] it was 0.625 µg/mL (≈ 1.17 µM); in test [4], 10 µg/mL (≈ 18.8 µM); in test [5] it was 1 µg/mL (≈ 1.88 µM); in [6], 1 µg/mL (≈ 1.88 µM). The MIC came out at 16 µg/mL (≈ 30 µM) in test [8]; 8 µg/mL (≈ 15 µM) in test [9]; 16 µg/mL (≈ 30 µM) in test [10]; 4 µg/mL (≈ 7.5 µM) in test [11]; 32 µg/mL (≈ 60 µM) in test [12]; 4 µg/mL (≈ 7.5 µM) in test [13]. Besides, the “growth inhibition (GI)” value in test [6] worked out at 95%. Moreover, the PI worked out at 2 in test [7] and 1 in [14].
